PubChem BioAssay AID2060495 (Molecular Pharmacology Branch, DTP, NCI, 2025)

Test system: 521955-158-R2-J5-PDC complex spheroid viability
Test: Anticancer human tumor 521955-158-R2-J5-PDC patient-derived pancreatic carcinoma cell line growth inhibition [GQUAD]
Conditions: for IC50: curve of first compound; for viability, T/C: stronger effect = lower value
Text: DNA G-quadruplex Stabilizer Agents in Combinations in Complex Spheroids
A high-throughput screen of multi-cell type tumor spheroids was designed to identify active combinations of DNA G-quadruplex stabilizer agents and targeted small molecules. Complex spheroids include a stromal component modeled by human endothelial cells (HUVEC) and fibroblasts modeled by human mesenchymal stem cells (MSCs). The concentration ranges selected for each drug and investigational agent were based upon clinically achievable concentrations if the clinical Cmax of the agent was known.
Compounds. The drugs and investigational agents: pidnarulex (CX-5461; NSC782164), APTO-253 (NSC789042), BRACO-19 (NSC847499), peposertib (NSC802822), ceralasertib (NSC780249), elimusertib (NSC800525), camonsertib (NSC841442), AZD-1390 (NSC803789), olaparib (NSC753686), talazoparib (NSC767125), ART-558 (NSC835418), sotorasib (NSC818433), MRTX-1133 (NSC836407), SN-38 (NSC673596), topotecan (NSC609699), etoposide (NSC141540), doxorubicin (NSC123127), gemcitabine (NSC613327), 5-fluorouracil (NSC19893), paclitaxel (NSC125973), vemurafenib (NSC761431), panobinostat (NSC761190), R-306465 (JNJ-16241199; NSC773264), adavosertib (NSC754352), TP-3654 (NSC805149), carboplatin (NSC241240), KSQ-4279 (NSC840948), and staurosporine (NSC755774) were obtained from the National Cancer Institute (NCI) Developmental Therapeutics Program Chemical Repository (34). The FDA-approved anticancer drug set is available from the NCI Developmental Therapeutics Program. […] The stock solutions were prepared in dimethyl sulfoxide (DMSO, Sigma-Aldrich, St. Louis, MO, cat. D2650) at 800-fold the tested concentration and stored at -70 degrees C prior to their use. All drugs and investigational agents were tested over a range starting from a high concentration at or near the clinical Cmax and decreasing in half-log increments. If the clinical Cmax for an agent had not been determined, the highest concentration tested was 10 microM.
2.3 Cell Culture. All cells were maintained in an incubator at 37 degrees C and 5% CO2 with 95% humidity. The PDC lines were cultured according to standard operating procedures established by the NCI PDMR. All PDCs were thawed and cultured in Matrigel-coated flasks prepared with a working solution of 1X Ham's F-12 nutrient mix, without supplementation (Invitrogen, cat. 11765054), 100 U/mL penicillin-streptomycin (Invitrogen, cat. 15140122), and 2.5% Matrigel (Corning Inc., cat. 354248) for the first three passages. The 857933-349-R-J2-PDC line was cultured in 6C/Colon 1B media, which includes advanced DMEM/F-12 (Thermo Fisher Scientific, cat. 12634028), 10 mM HEPES (Thermo Fisher Scientific, cat. 15630080), 1X GlutaMAX supplement (Thermo Fisher Scientific, cat. 35050061), 0.1 mg/mL primocin (InvivoGen, cat. ant-pm-2), 10% defined fetal bovine serum, heat inactivated (HyClone Laboratories Inc., cat. SH30070.03HI), 50% L-WRN conditioned media (ATCC, cat. CRL-3276), 1.25 mM N-Acetyl-L-cysteine (Sigma-Aldrich, cat. A9165), 10 mM nicotinamide (Sigma-Aldrich, cat. N0636), 1X B-27 supplement (Thermo Fisher Scientific, cat. 17504044), 1X N-2 supplement (Thermo Fisher Scientific, cat. 17502048), 10 microM Y-27632 dihydrochloride (Tocris Bioscience, cat. 1254), and 50 ng/mL human EGF recombinant protein (Thermo Fisher Scientific, cat. PHG0311). The 485176-168-R4-J1-PDC line was cultured in Panc media, which includes all 6C/Colon 1B media components plus 100 ng/mL human FGF-10 (Thermo Fisher Scientific, cat. 100-26), 500 nM SB-431542 (Selleckchem, cat. S1067), and gastrin (Tocris, cat. 3006).
[…]

[1] = second compound 0.0316 µM, first compound 0.0316 µM
[2] = second compound 0.0316 µM, first compound 0.1 µM
[3] = second compound 0.0316 µM, first compound 0.316 µM
[4] = second compound 0.0316 µM, first compound 1 µM
[5] = second compound 0.0316 µM, first compound 3.16 µM
[6] = second compound 0.0316 µM, first compound 10 µM
[7] = second compound 0.1 µM, first compound 0.0316 µM
[8] = second compound 0.1 µM, first compound 0.1 µM
[9] = second compound 0.1 µM, first compound 0.316 µM
[10] = second compound 0.1 µM, first compound 1 µM
[11] = second compound 0.1 µM, first compound 3.16 µM
[12] = second compound 0.1 µM, first compound 10 µM
[13] = second compound 0.316 µM, first compound 0.0316 µM
[14] = second compound 0.316 µM, first compound 0.1 µM
[15] = second compound 0.316 µM, first compound 0.316 µM
[16] = second compound 0.316 µM, first compound 1 µM
[17] = second compound 0.316 µM, first compound 3.16 µM
[18] = second compound 0.316 µM, first compound 10 µM
[19] = second compound 1 µM, first compound 0.0316 µM
[20] = second compound 1 µM, first compound 0.1 µM
[21] = second compound 1 µM, first compound 0.316 µM
[22] = second compound 1 µM, first compound 1 µM
[23] = second compound 1 µM, first compound 3.16 µM
[24] = second compound 1 µM, first compound 10 µM
[25] = second compound 3.16 µM, first compound 0.0316 µM
[26] = second compound 3.16 µM, first compound 0.1 µM
[27] = second compound 3.16 µM, first compound 0.316 µM
[28] = second compound 3.16 µM, first compound 1 µM
[29] = second compound 3.16 µM, first compound 3.16 µM
[30] = second compound 3.16 µM, first compound 10 µM
[31] = second compound 10 µM, first compound 0.0316 µM
[32] = second compound 10 µM, first compound 0.1 µM
[33] = second compound 10 µM, first compound 0.316 µM
[34] = second compound 10 µM, first compound 1 µM
[35] = second compound 10 µM, first compound 3.16 µM
[36] = second compound 10 µM, first compound 10 µM
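Further: spheroids exposed to agents for one week before reading.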
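Wherever viability, T/C is given: 100% = DMSO vehicle control viability.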

For CC(C)n1c(=O)n(C)c2cnc3cc(F)c(-c4ccc(OCCCN5CCCCC5)nc4)cc3c21 + Cc1cnc(CNC(=O)c2c(=O)c3ccc(N4CCCN(C)CC4)nc3n3c2sc2ccccc23)cn1, the IC50 (second compound 0.0316 µM) was greater than 10000 nM, the IC50 (second compound 0.1 µM) was greater than 10000 nM and the IC50 (second compound 0.316 µM) was less than 31.6 nM. It also gave an IC50 (second compound 1 µM) of less than 31.6 nM, an IC50 (second compound 3.16 µM) of less than 31.6 nM and an IC50 (second compound 10 µM) of less than 31.6 nM. The viability, T/C [1] was 60.1%, the viability, T/C [2] was 53.2% and the viability, T/C [3] was 70.5%. It also gave a viability, T/C [4] of 56%, a viability, T/C [5] of 76.2% and a viability, T/C [6] of 74.9%. For the same compound, the viability, T/C [7] was 44.2%, the viability, T/C [8] was 60.9% and the viability, T/C [9] was 62.2%. For the same compound, the viability, T/C [10] was 54.1%, the viability, T/C [11] was 49.7% and the viability, T/C [12] was 56.6%. The viability, T/C [13] was 31.7%, the viability, T/C [14] was 31.4% and the viability, T/C [15] was 42.6%. The viability, T/C [16] was 40.4%, the viability, T/C [17] was 36.7% and the viability, T/C [18] was 41.7%. It also gave a viability, T/C [19] of 20%, a viability, T/C [20] of 22.5% and a viability, T/C [21] of 19.5%. For the same compound, the viability, T/C [22] was 20%, the viability, T/C [23] was 22.1% and the viability, T/C [24] was 26.8%. For the same compound, the viability, T/C [25] was 19.1%, the viability, T/C [26] was 17.9% and the viability, T/C [27] was 19.6%. It also gave a viability, T/C [28] of 21.1%, a viability, T/C [29] of 24.6% and a viability, T/C [30] of 20.4%. It also gave a viability, T/C [31] of 17.7%, a viability, T/C [32] of 19.4% and a viability, T/C [33] of 18.9%. The viability, T/C [34] was 20%, the viability, T/C [35] was 21.1% and the viability, T/C [36] was 21.8%.

Work on C#Cc1c(F)ccc2cc(O)cc(-c3ncc4c(N5CC6CCC(C5)N6)nc(OCC56CCCN5CC(F)C6)nc4c3F)c12 (stereo unspecified) + CN(C)c1ccc(Nc2c3ccc(NC(=O)CCN4CCCC4)cc3nc3cc(NC(=O)CCN4CCCC4)ccc23)cc1 yielded an IC50 (second compound 0.0316 µM) of 1770 nM, an IC50 (second compound 0.1 µM) of 1850 nM and an IC50 (second compound 0.316 µM) of 3390 nM. The IC50 (second compound 1 µM) was 1400 nM, the IC50 (second compound 3.16 µM) was 159 nM and the IC50 (second compound 10 µM) was less than 31.6 nM. It also gave a viability, T/C [1] of 66.3%, a viability, T/C [2] of 62.5% and a viability, T/C [3] of 57.5%. It also gave a viability, T/C [4] of 48.1%, a viability, T/C [5] of 52.5% and a viability, T/C [6] of 41.7%. The viability, T/C [7] was 74.2%, the viability, T/C [8] was 52.2% and the viability, T/C [9] was 62%. For the same compound, the viability, T/C [10] was 60.8%, the viability, T/C [11] was 40.6% and the viability, T/C [12] was 33.5%. It also gave a viability, T/C [13] of 61.3%, a viability, T/C [14] of 57% and a viability, T/C [15] of 62.8%. It also gave a viability, T/C [16] of 52.5%, a viability, T/C [17] of 53.1% and a viability, T/C [18] of 32.6%. The viability, T/C [19] was 74.8%, the viability, T/C [20] was 56.4% and the viability, T/C [21] was 60.1%. It also gave a viability, T/C [22] of 50%, a viability, T/C [23] of 51.6% and a viability, T/C [24] of 34.2%. The viability, T/C [25] was 49.7%, the viability, T/C [26] was 63.3% and the viability, T/C [27] was 40.5%. It also gave a viability, T/C [28] of 35.8%, a viability, T/C [29] of 29% and a viability, T/C [30] of 16.8%. It also gave a viability, T/C [31] of 31.8%, a viability, T/C [32] of 23.6% and a viability, T/C [33] of 15.2%. It also gave a viability, T/C [34] of 10.6%, a viability, T/C [35] of 6.1% and a viability, T/C [36] of 1.84%.

Compound C=CCn1c(=O)c2cnc(Nc3ccc(N4CCN(C)CC4)cc3)nc2n1-c1cccc(C(C)(C)O)n1 + Cc1[nH]c2ccc(F)cc2c1-c1nc2c3cccnc3c3ncccc3c2[nH]1 has an IC50 (second compound 0.0316 µM) of 217 nM, an IC50 (second compound 0.1 µM) of 182 nM and an IC50 (second compound 0.316 µM) of 177 nM. It also gave an IC50 (second compound 1 µM) of 175 nM, an IC50 (second compound 3.16 µM) of 159 nM and an IC50 (second compound 10 µM) of 192 nM. The viability, T/C [1] was 103%, the viability, T/C [2] was 84.9% and the viability, T/C [3] was 33.1%. For the same compound, the viability, T/C [4] was 14.6%, the viability, T/C [5] was 12.6% and the viability, T/C [6] was 12.1%. It also gave a viability, T/C [7] of 95.1%, a viability, T/C [8] of 75.8% and a viability, T/C [9] of 25.8%. The viability, T/C [10] was 15.8%, the viability, T/C [11] was 11.1% and the viability, T/C [12] was 10.5%. The viability, T/C [13] was 79.9%, the viability, T/C [14] was 66.6% and the viability, T/C [15] was 33.2%. The viability, T/C [16] was 15.2%, the viability, T/C [17] was 13.2% and the viability, T/C [18] was 12.1%. It also gave a viability, T/C [19] of 84.1%, a viability, T/C [20] of 75.4% and a viability, T/C [21] of 23.4%. The viability, T/C [22] was 12.8%, the viability, T/C [23] was 12.6% and the viability, T/C [24] was 10.4%. For the same compound, the viability, T/C [25] was 77%, the viability, T/C [26] was 60.4% and the viability, T/C [27] was 34.8%. The viability, T/C [28] was 15%, the viability, T/C [29] was 15.3% and the viability, T/C [30] was 19.6%. For the same compound, the viability, T/C [31] was 68.7%, the viability, T/C [32] was 68.3% and the viability, T/C [33] was 36.5%. The viability, T/C [34] was 18.2%, the viability, T/C [35] was 14% and the viability, T/C [36] was 15.6%.
